Reference: patent US7687470B2, “Avermectin and avermectin monosaccharide substituted in the 4″- and 4″ position respectively” (Syngenta Crop Protection, Inc., priority 2005, dated 2010)

System: Diabrotica balteata
Assay: Activity against Diabrotica balteata (sprayed maize seedlings)
Type: in vivo
Conditions: 12.5 ppm, spray on maize seedlings, second-stage larvae, after 6 days; b227: good activity corresponding to a mortality of at least 50 to 60%
Experimental: Maize seedlings are sprayed with an aqueous emulsion spray liquor which comprises 12.5 ppm of active compound and, after the spray coating has dried on, populated with 10 larvae of the second stage of Diabrotica balteata and then introduced into a plastic container. After 6 days, the reduction in the population in percent (% activity) is determined by comparing the dead larvae between the treated and the untreated plants.

CCC(C)C1OC2(C=CC1C)CC1CC(CC=C(C)C(OC3CC(OC)C(OC4CC(OC)C(C)(NC=O)C(C)O4)C(C)O3)C(C)C=CC=C3COC4C(O)C(C)=CC(C(=O)O1)C34O)O2 (stereo not shown) [Table A8]
activity in this test (in words): good activity
